# Results from patent EP0364581A1, “METHOD OF STERILIZING PLANT POLLEN” (VSESOJUZNY NAUCHNO-ISSLEDOVATELSKY INST. SELSKOKHOZYAISTV. …, priority 1988, dated 1989).
# Like-named read-outs stand apart in the source and are kept apart here.
# Key:
# Test in all cases: field test of gametocidal activity (sterilisation of anthers)
# Assay type in all cases: in vivo
# [1] = test system: Diploider Roggen Chulpan; conditions: for pest or weed control at 8000 g/ha / percent sterility at 8000 g/ha: read-out: Prozentsatz der Sterilität; for response vs control in vivo at 8000 g/ha: read-out: Prozentsätz des Ansetzens der Körner bei freier Bestäubung
# Excerpt: (§1) Die gametozide Aktivität der erfindungsgemäßen Sterilisationsmittel war in Feldversuch in verschiedenen bodenklimatischen Zonen mit Teilstücken von 10 m^2 Größe in drei-- bis viermaliger Wiederholung nachgewiesen. Jedes Sterilisationsmittel wurde mindestens 5 Jahre lang geprüft.
# (§2) Die Entwicklung der Perioden der Organogenese wird zytologisch überwacht. Die Behandlung von Pflanzen mit dem Sterilisationsmittel erfolgt am Anfang der fünften Periode der Organogenese nach Kupermann.
# (§3) Mit dem Ahrenschieben verwirklicht man die Isolierung von Hauptähren und anderen Stockwerken in Pergamentbeuteln. Bei Weizen und Tritikale werden Einzelisolatoren verwendet. Bei Roggen schließt man je 1 Ähre von 5 bis 7 verschiedenen nebeneinander befindlichen Pflanzen in einen gemeinsamen Isolator ein. Bei Hirse wird jede Rispe getrennt isoliert. Der Sterilitätsprozentsatz (X) für Weizen, Roggen, Tritikale und Hirse wird nach der Formel [formula]
# (§4) Samen von unbehandelten Kontrollpflanzen ermittelt.
# (§5) Die Kornzahl in nicht isolierten Ähren von Kontrollpflanzen wird bedingt für 100% Ansetzen bei freier Bestäubung angenommen.
# (§6) Um zuverlässige Angaben zu erhalten, verwendet man 20 bis 25 Isolatoren jeder Wiederholung für Weizen und Tritikale, 10 bis 15 Isolatoren jeder Wiederholung für Roggen und Hirse.
# Pflanzen von diploidem Roggen Sorte Chulpan werden in der V. Periode der Organogenese (nach Kupermann) mit einer 1%igen wäßrigen Emulsion von Kaliumsalz der 2-Methyl-3-zy- klohexenkarbonsäure, 2-Methyl-3-zyklohexenkarbonsäuremethyl- ester, Kaliumsalz der Salizylsäure, Phthalsäurediallylester, Phthalsäurediisobutylester, Phthalsäuredipropylester, Phthalsäuredihexylester, Phthalsäuredibutylester. Die Emulsion enthält 0,01 Masse% Tetrahydrofuran und 0,1 Masse% C12-C14--Kalziumalkylbenzolsulfonat. Der Verbrauch an Präparat beträgt 8 kg/ha. Als Kuntrolle dienen Pflanzen, behandelt mit einem Verdünner ohne Sterilisationsmittel. […]
# [2] = test system: tetraploidem Roggen Sorte Belta; conditions: V. Periode, 1%ige wäßrige Emulsion, 6 kg/ha
# Excerpt: as §1, §2, §3, §4, §5, §6
# Pflanzen von tetraploidem Roggen Sorte Belta werden in der V. Periode der Organogenese (nach Kupermann) mit einer 1%igen wäßrigen Emulsion von Kaliumsalz der 2-Methyl-3-zy- klohexenkarbonsäure, 2-Methyl-3-zyklohexenkarbonsäuremethyl- ester, Phthalsäuredibutylester, Phthalsäuredihexylester, Phthalsäuredipropylester, Phthalsäurediallylester, Phthalsäurediisobutylester, Kaliumsalz der […] behandelt. Die Emulsion enthält 0,01 Masse% Dimethylsuloxid und 0,1 Masse% C12-C14-Kalziumalkylbenzolsulfonat. Der Verbrauch an Präparat beträgt 6 kg/ha. Als Kontrolle dienen Pflanzen behandelt mit einem Verdünner ohne Sterilisationsmittel.
# [3] = test system: Hirse Sorte Mironovskoe 94; conditions: V. Periode, 1%ige wäßrige Emulsion, 10 kg/ha; for Prozentsatz des Ansetzens der Körner bei freier Bestäubung: control = 100
# Excerpt: as §1, §2, §3, §4, §5, §6
# Pflanzen der Hirse Sorte Mironovskoe 94 werden in der V. Periode der Organogenese (nach Kupermann) mit einer l%igen wäßrigen Emulsion von Kaliumsalz der 2-Methyl-3-zyklohexen- karbonsäure, 2-Methyl-3-zyklohexenkarbonsäuremethylester, Phthalsäuredihexylester, Phthalsäuredibutylester, Phthalsäuredipropylester, Natriumsalz der p-Hydroxybenzoesäure, Phthalsäurediäthylester, Phthalsäurediallylester behandelt. Die Emulsion enthält 0,01 Masse% Dimethylformamid und 0,1 Masse% C12-C14-Kalziumalkylbenzolsulfonat. Der Verbrauch an Präparat beträgt 10 kg/ha. Als Kontrolle dienen Pflanzen, behandelt mit einem Verdünner ohne Sterilisationsmittel. Die Prüfergebnisse sind in der Tabelle 17 angeführt. […] Periode der Organogenese erhalten.
# [4] = test system: Winterweizen Mironovskaya 808; conditions: treated in V. Periode der Organogenese, 2%ige wäßrige Emulsion, 20 kg/ha; for Prozentsatz des Ansetzens der Körner bei freier Bestäubung: control = 100
# Excerpt: as §1, §2, §3, §4, §5, §6
# Pflanzen des Winterweizens Sorte Mironovskaya 808 werden in der V. Periode der Organogenese durch Zerstäubung einer 2%igen wäßrigen Emulsion des Kaliumsalzes von 2-Methyl-3-zyklohexenkarbonsäure mit Hilfe einer Rückenspritze behandelt. Als Emulgiermittel setzt man 0,1 Masse% C12--C14 - Kalziumalkylbenzolsulfonat zu. Als Adjuvans führt man in die Emulsion 0,01 Masse% Dimethylformamid ein. Der Verbrauch an Präparat beträgt 20 kg/ha. Als Kontrolle dienen Pflanzen, behandelt mit einem Verdünner ohne Sterilisationsmittel. Die Ergebnisse sind in der Tabelle 1 angegeben. […] Periode der Organogenese erhalten.
# Der Prozeß wird analog zu dem in Beispiel 1 beschriebenen durchgeführt. Als Sterilisationsmittel verwendet man eine 2%ige wäßrige Emulsion von 2-Methyl-3-zyklohexenkarbon- säuremethylester, Ammoniumsalz der 2-Methyl-[…], Phthalsäuredihexylester, Phthalsäuredibutylester, Phthalsäuredipropylester, Phthalsäurediisobutylester, Phthalsäurediäthylester. Die Ergebnisse sind in der Tabelle 1 angeführt. […]
# [5] = Chulpan, V. Periode, 1%ige wäßrige Emulsion, 8 kg/ha
# [6] = Chulpan, V. Periode, 1%ige wäßrige Emulsion, 8 kg/ha, control = 100
SMILES,"Kornzahl der Ähre bei freier Bestäubung [1, 5]","Kornzahl der Ähre im Isolator [1, 5]",Kornzahl der Rispe bei freier Bestäubung [3],Kornzahl der Rispe im Isolator [3],Prozentsatz der Sterilität [3],Prozentsatz des Ansetzens der Körner bei freier Bestäubung [3],Kornzahl der Ähre bei freier Bestäubung [4],Kornzahl der Ähre im Isolator [4],Prozentsatz der Sterilität [4],Prozentsatz des Ansetzens der Körner bei freier Bestäubung [4],further results
"CCCCOC(=O)c1ccccc1C(=O)OCCCC [Beispiel 67, Phthalsäuredibutylester]","50,5","0,0",–,–,–,–,–,–,–,–,pest or weed control at 8000 g/ha [1]: 100%; response vs control in vivo at 8000 g/ha [1]: 88.9%
"CC(C)COC(=O)c1ccccc1C(=O)OCC(C)C [Beispiel 54, Phthalsäurediisobutylester]",–,–,–,–,–,–,–,–,–,–,"Kornzahl der Ähre bei freier Bestäubung [2]: 40,4; Kornzahl der Ähre im Isolator [2]: 0,0; Prozentsatz der Sterilität [2]: 100,0%; Prozentsatz des Ansetzens bei freier Bestäubung ([2]; control = 100): 85,8%"
"C=CCOC(=O)c1ccccc1C(=O)OCC=C [Beispiel 96, Phthalsäurediallylester]",–,–,"335,2","0,0","100,0%","88,3%",–,–,–,–,–
"CCOC(=O)c1ccccc1C(=O)OCC [Beispiel 8, Phthalsäurediäthylester]",–,–,–,–,–,–,"39,8","0,5","98,7%","98,5%",–
"CCCOC(=O)c1ccccc1C(=O)OCCC [Beispiel 93, Phthalsäuredipropylester]",–,–,"308,7","0,0","100,0%","81,3%",–,–,–,–,–
"CCCCCCOC(=O)c1ccccc1C(=O)OCCCCCC [Beispiel 4, Phthalsäuredihexylester]",–,–,–,–,–,–,"38,2","4,2","88,9%","94,5%",–
"O=C([O-])c1ccc(O)cc1.[Na+] [Beispiel 94, Natriumsalz der p-Hydroxybenzoesäure]",–,–,"400,7","0,0","100,0%","105,6%",–,–,–,–,–
"CC(C)COC(=O)c1ccccc1C(=O)OCC(C)C [Beispiel 7, Phthalsäurediisobutylester]",–,–,–,–,–,–,"37,7","0,2","99,5%","93,3%",–
"CCCOC(=O)c1ccccc1C(=O)OCCC [Beispiel 65, Phthalsäuredipropylester]","53,2","0,0",–,–,–,–,–,–,–,–,pest or weed control at 8000 g/ha [1]: 100%; response vs control in vivo at 8000 g/ha [1]: 93.6%
"COC(=O)C1CCC=CC1C (stereo not shown) [Beispiel 90, 2-Methyl-3-zyklohexenkarbonsäuremethylester]",–,–,"327,6","0,0","100,0%","86,3%",–,–,–,–,–
"CC(C)COC(=O)c1ccccc1C(=O)OCC(C)C [Beispiel 64, Phthalsäurediisobutylester]","52,2","0,5",–,–,–,–,–,–,–,–,pest or weed control at 8000 g/ha [1]: 99%; response vs control in vivo at 8000 g/ha [1]: 91.9%
"CCCCCCOC(=O)c1ccccc1C(=O)OCCCCCC [Beispiel 66, Phthalsäuredihexylester]","57,0","0,0",–,–,–,–,–,–,–,–,pest or weed control at 8000 g/ha [1]: 100%; response vs control in vivo at 8000 g/ha [1]: 100%
"CCCOC(=O)c1ccccc1C(=O)OCCC [Beispiel 6, Phthalsäuredipropylester]",–,–,–,–,–,–,"39,0","5,0","86,8%","96,5%",–
"CCCCOC(=O)c1ccccc1C(=O)OCCCC [Beispiel 92, Phthalsäuredibutylester]",–,–,"351,4","0,0","100,0%","92,6%",–,–,–,–,–
"O=C(O)c1ccccc1O [Beispiel 62, Kaliumsalz der Salizylsäure]","50,4","10,4",–,–,–,–,–,–,–,–,pest or weed control at 8000 g/ha [1]: 79.7%; response vs control in vivo at 8000 g/ha [1]: 88.7%
"C=CCOC(=O)c1ccccc1C(=O)OCC=C [Beispiel 63, Phthalsäurediallylester]","53,7","0,3",–,–,–,–,–,–,–,–,"percent sterility at 8000 g/ha [1, 5]: 99.4%; response vs control in vivo at 8000 g/ha [1]: 94.5%"
"COC(=O)C1CCC=CC1C (stereo not shown) [Beispiel 2, 2-Methyl-3-zyklohexenkarbon-säuremethylester]",–,–,–,–,–,–,"30,1","0,0","100,0%","74,5%",–
"CCCCCCOC(=O)c1ccccc1C(=O)OCCCCCC [Beispiel 91, Phthalsäuredihexylester]",–,–,"311,5","0,0","100,0%","82,1%",–,–,–,–,–
"CCOC(=O)c1ccccc1C(=O)OCC [Beispiel 95, Phthalsäurediäthylester]",–,–,"352,5","0,0","100,0%","92,6%",–,–,–,–,–
"CC1C=CCCC1C(=O)[O-].[K+] (stereo not shown) [Beispiel 1, Kaliumsalzes von 2-Methyl-3-zyklohexenkarbonsäure]",–,–,–,–,–,–,"38,6","3,2","91,5%","95,5%",–
"CCCCOC(=O)c1ccccc1C(=O)OCCCC [Beispiel 5, Phthalsäuredibutylester]",–,–,–,–,–,–,"31,7","0,0","100,0%","78,5%",–
"CC1C=CCCC1C(=O)O.N (stereo not shown) [Beispiel 3, Ammoniumsalz der 2-Methyl-23-zyklohexen-karbonsäure]",–,–,–,–,–,–,"39,2","0,6","98,4%","97,0%",–
"CC1C=CCCC1C(=O)O (stereo not shown) [Beispiel 60, Kaliumsalz der 2-Methyl-3-zy-klohexenkarbonsäure]","55,2","0,0",–,–,–,–,–,–,–,–,"response vs control in vivo at 8000 g/ha [1, 6]: 97.1%; percent sterility at 8000 g/ha [1, 5]: 100%"
"CC1C=CCCC1C(=O)[O-].[K+] (stereo not shown) [Beispiel 89, Kaliumsalz der 2-Methyl-3-zyklohexen-karbonsäure]",–,–,"304,3","0,0","100,0%","80,2%",–,–,–,–,–
"COC(=O)C1CCC=CC1C (stereo not shown) [Beispiel 61, 2-Methyl-3-zyklohexenkarbonsäuremethyl-ester]","51,0","0,0",–,–,–,–,–,–,–,–,"response vs control in vivo at 8000 g/ha [1, 6]: 89.8%; percent sterility at 8000 g/ha [1, 5]: 100%"
